The values that follow come from PMC5338263, “GS-5734 and its parent nucleoside analog inhibit Filo-, Pneumo-, and Paramyxoviruses” (Scientific Reports, 2017).

In one data set the test system is Paramyxo. The data set can be described thus: Potency by virus family (Fig. 2), Paramyxo. It counts as cell-based. To be noted: read-out: potency class (EC50).
A further data set relates to EBOV minigenome. The experiment in a line: cells. It counts as cell-based, Ebola virus.
Data set [1] can be described thus: Cell viability assay (CellTiter-Glo 2.0), HMVEC-L. The following applies: human. In general terms: In ATP-based viability assays light output follows the ATP content of the culture.
The subject of a further data set is ANDV Chile 9717869. The data set can be described thus: microbe, parasite or virus in culture. The following applies: Orthohantavirus andesense, Huh-7.
The test system of a further data set is Ebola virus. To be noted: in vivo; cited from earlier work.
The next data set has as its system Filo (filoviruses). The following applies: cited from earlier work.
The test system of another data set is Rhabdo. The experiment in a line: Potency by virus family (Fig. 2), Rhabdo. It is filed as cell-based. The following applies: read-out: potency class (EC50).
In the next data set the test system is NiV M-1999. The data set can be described thus: microbe, parasite or virus in culture. The following applies: Henipavirus nipahense, HeLa. It counts as cell-based, Nipah virus.
Data set [2] in a line: Cell viability assay (CellTiter-Glo 2.0), A549. The following applies: human, uninfected A549 cells.
For a further data set, the system named is NiV B-2004 (Nipah virus). The data set can be described thus: in vitro. To be noted: human.
In the next data set the test system is MV EZ vaccine. The experiment in a line: microbe, parasite or virus in culture. The following applies: Measles morbillivirus, HeLa.

Molecules are shown by their SMILES. Like-named read-outs stand apart in the source and are kept apart here. Bounds are passed on as bounds.

A word on the EC50: it is the midpoint of the concentration-response curve. What is called CC50 is the concentration at which the toxic effect on the cells reaches its halfway point. Low values mean harm at low concentration, high ones better tolerance by the cells. As usually defined, the EC90 is the point of the concentration-response curve where the effect stands at 90%.

In the case of `CCC(CC)COC(=O)[C@H](C)N[P@](=O)(OC[C@H]1O[C@@](C#N)(c2ccc3c(N)ncnn23)[C@H](O)[C@@H]1O)Oc1ccccc1` [GS-5734], the EC50 was less than 100 nM with Paramyxo; “sub-micromolar range” with EBOV minigenome; 420 nM with EBOV minigenome (Zaire ebolavirus, Huh-7, 48 h); 6.95 ± 3.1 µM in the data set with ANDV Chile 9717869; 4.5 µM in the data set on LASV Josiah; greater than 4 µM in the data set on Rhabdo. Moreover, in the data set with NiV M-1999, the response was half-maximal at 65.5 ± 16 nM (EC50). In addition, the CC50 at 72 h in data set [1] is 8.5 µM; in [2] it was greater than 10 µM. Besides, in the data set on ANDV Chile 9717869, the 90% effect level (EC90) was put at 10.1 µM. The “protection from lethal Ebola virus infection” value in the data set with Ebola virus is listed as “protected”. In the data set with Filo (filoviruses), the “activity in cell-based antiviral assays” value is listed as “shown activity”.

Turning to `N#C[C@@]1(c2ccc3c(N)ncnn23)O[C@H](CO)[C@@H](O)[C@H]1O` [Nuc], in the data set on NiV B-2004 (Nipah virus), the selectivity ratio was 60. In the data set with MV EZ vaccine, this compound yielded an EC50 of 2010 nM and an EC90 of 5.1 µM.
